Results as given in patent US20250276973A1, “CRYSTAL OF 7H-PYRROLO[2,3-D]PYRIMIDINE-4-AMINE DERIVATIVE” (TAIHO PHARMACEUTICAL CO., LTD., priority 2022, published 2025).
Where two headings read alike, the source gives them in different places.

How the values were obtained:
[1] = Solid stability test (4 weeks of storage at 80° C., closed system; HPLC); format: physicochemical; details: for Chemical purity after 4 weeks of storage at 80° C. / Solid stability (result in words): 80° C. (closed system), 4 weeks; for Chemical purity after 4 weeks of storage at 80° C.: glass bottle; for Chemical purity after 4 weeks of storage at 80° C. / Chemical purity before storage: HPLC; for Solid stability (result in words): related substances by HPLC; for Change (chemical purity): after 4 weeks at 80° C. versus before storage; for Chemical purity before storage: UV 220
Method: The solid stability of the type II crystal of Compound (1) in free form, the type III crystal of Compound (1) in free form, the type VII crystal of Compound (1) in free form, and the type VIII crystal of Compound (1) in free form obtained in the examples, reference example, and comparative example were evaluated after 4 weeks of storage by the following procedure. • Storage conditions: 80° C. (closed system) (HIFLEX (high-temperature storage chamber manufactured by ETAC)) • Storage period: 4 weeks • Storage volume: Approximately 30 mg • Storage container: Glass bottle
Changes in the mass of the related substances (the amounts of detected substances other than Compound (1)) were analyzed by HPLC according to the following method. Approximately 8 mg of each sample was weighed and dissolved in I mL of a chloroform-methanol mixture (1:1 v/v). Fifty μL of this solution was measured and diluted with 950 μL of an acetonitrile-water mixture (7:3), and 5 μL of the resulting solution was accurately measured and used as the sample for the analysis.
The mass of the related substances in the sample solution was determined by HPLC analysis. The instrument, including data processing, was handled in accordance with the method and procedure indicated for each instrument. • Column: InertSustainSwift C18 (2.1×50 mm, 1.9 μm) manufactured by GL Sciences • UV detection: […] • Column temperature: 40° C. • Flow rate: 0.3 mL/min • Sample cooler: 10° C. • Sample concentration: 0.1 mg/mL • Mobile phase A: 10 mmol/L phosphate buffer (pH 6.8)/acetonitrile (95:5) mixture • Mobile phase B: Acetonitrile • The gradients are shown in Table 4.
The solid stability of the type III crystal of Compound (1) with succinic acid, the type I crystal of Compound (1) with citric acid, the type IV crystal of Compound (1) with citric acid, the type I crystal of Compound (1) with sorbic acid, and the type I crystal of Compound (1) with phosphoric acid obtained in the examples, reference example, and comparative examples were evaluated after 4 weeks of storage. The evaluation method, storage, and measurement conditions were as described in Test Example 1.

[2] = Plasma concentration determination test after oral administration; format: in vivo; details: male beagle dogs, gelatin capsule, 20 mg/kg in terms of free form, hypochlorhydria conditions, three dogs
Method: The Compound (1) in free form (type II crystal), the type III crystal of Compound (1) with one equivalent of succinic acid, and the type I crystal of Compound (1) with one equivalent of sorbic acid obtained in the examples were tested for plasma concentrations in male beagle dogs after oral administration under hypochlorhydria conditions.
In order to select three male beagle dogs for the test, plasma concentrations were determined in five male beagle dogs under hypochlorhydria conditions after administration in a solution form and administration in a capsule-filled form. Three dogs with larger differences in AUClast (area under the plasma concentration-time curve from 0 hours after administration to the point at which the final concentration can be calculated by the linear trapezoidal method before Tmax and by the log-trapezoidal method after Tmax) and Cmax (maximum plasma concentration) between the administration in the solution form and the administration in the capsule-filled form were selected. Subsequently, tests were conducted to determine plasma concentrations in them after oral administration of the Compound (1) in free form (type II crystal), the type III crystal of Compound (1) with one equivalent of succinic acid, and the type I crystal of Compound (1) with one equivalent of sorbic acid in capsule-filled forms. The following procedures were employed for the preparation of a liquid dosage, capsule filling, and animal experiments.
Compound (1) in free form was dissolved in a 20% HP-β-CD solution containing 0.1N hydrochloric acid to prepare a solution of 20 mg/5 mL. Compound (1) in free form (type II crystal), the type III crystal of Compound (1) with one equivalent of succinic acid, and the type I crystal of Compound (1) with one equivalent of sorbic acid were each filled into a gelatin capsule at 20 mg/kg in terms of the molecular weight of Compound (1) (free form).
The male beagle dogs selected for the study were fasted starting between 11:00 a.m. to 12:00 p.m. on the day before Compound (1) was administered and fed after blood was collected 8 hours after the administration of the compound. The dogs were not allowed to drink water from 30 minutes before to 2 hours after the administration of the compound, but were allowed to drink freely at other time.
Intravenous administration of atropine (atropine sulfate injection 0.5 mg “Fuso”) at a dose of 0.02 mg/kg was followed by intramuscular administration of pentagastrin at a dose of 0.01 mg/kg 30 minutes prior to the administration of the compound. Thirty minutes after the administration of atropine, the dogs were orally force-fed a capsule filled with the compound, encouraged to self-swallow the capsule with 5 mL of distilled water, and further orally force-fed 50 mL of distilled water using a catheter. Alternatively, the compound dissolved in liquid dosage was administered orally via a catheter at a dose of 20 mg/5 mL/kg, and the catheter was immediately rinsed with 10 mL of distilled water.
Pentagastrin was again intramuscularly administered at 0.01 mg/kg 15 minutes and 1 hour after the administration of the compound.
Before and after (0.25, 0.5, 1, 2, 4, 6, 8, and 24 hours after) the administration, the person in charge of collecting blood held the dog's forelimb to distend the blood vessel using a clothespin or the like. Then, the blood collection site was disinfected with alcohol cotton, and about 0.2 mL of blood was collected using a heparinized syringe and needle. After the blood was drawn, the puncture site was pressed with a cotton pad to adequately stop bleeding. The collected blood samples were ice-cooled, and plasma was isolated by centrifugation as soon as possible. The isolated plasma was immediately frozen on dry ice and then stored frozen in a freezer set at −80° C. […]

[3] = Dynamic vapor sorption (DVS) test; format: physicochemical; details: 25° C.; for Hygroscopicity (result in words): 5 to 95% RH; for Weight increase under 95% relative humidity: 95% RH
Method: Vapor sorption tests were performed using the type II crystal of Compound (1) in free form, the type III crystal of Compound (1) in free form, the type VII crystal of Compound (1) in free form, and the type VIII crystal of Compound (1) in free form obtained in the examples, reference example, and comparative example.
Vapor sorption tests were conducted under the following conditions.
Approximately 10 mg of the sample was filled into a specialized quartz holder to continuously measure and record the weight of the sample at each humidity was under the following conditions. The instrument, including data processing, was handled in accordance with the method and procedure indicated for each instrument. • Instrument: VTI-SA+(manufactured by TA Instruments) • Drying temperature: 60° C. • Heating rate: 1° C./min • Equilibration of drying: Confirmation of no more than 0.01 wt % decrease in 5 minutes within a period not exceeding 300 minutes • Measurement temperature: 25° C. • Equilibration of humidification: Confirmation of no more than 0.01 wt % increase in 5 minutes within a period not exceeding 120 minutes • Relative humidity program: Increase from 5 to 95% RH in increments of 5% RH, and decrease from 95% to 5% RH in increments of 5% RH. • Changes in the weight over the range of the measurement conditions obtained in these tests are shown in FIGS. 9 through 12.
Vapor sorption tests were performed using the type III crystal of Compound (1) with succinic acid, the type I crystal of Compound (1) with citric acid, the type IV crystal of Compound (1) with citric acid, the type I crystal of Compound (1) with sorbic acid, and the type I crystal of Compound (1) with phosphoric acid obtained in the examples, reference example, and comparative examples.
Vapor sorption tests were conducted under the same conditions as in Test Example 2.

[4] = male, beagle, dog, plasma, po, 20 mg/kg

Compound	Chemical purity after 4 weeks of storage at 80° C. [1] [%]	Solid stability (result in words) [1]	Change (chemical purity) [1]	Chemical purity before storage [1] [%]	AUClast [2] [µM·h]	Cmax [2] [nM]	tmax [2] [h]	Hygroscopicity (result in words) [3]	Weight increase under 95% relative humidity [3] [%]	AUC(0-t) [2, 4] [µM·h]	Cmax [2, 4] [nM]	tmax ([2]; male, beagle, dog, plasma, po, 20 mg/kg, read-out: tmax) [h]
C#Cc1c(-c2cnc3ccccc3c2)c2c(N)ncnc2n1C12CCC(NC(=O)c3cnc(C)cn3)(CC1)C2 [Type III crystal of Compound (1) with succinic acid] [N-(4-(4-amino-6-ethynyl-5-(quinolin-3-yl)-7H-pyrrolo[2,3-d]pyrimidin-7-yl)bicyclo[2.2.1]heptan-1-yl)-5-methylpyrazine-2-carboxamide]	99.63	extremely stable crystals with almost no increase in the related substances	+0.01%	99.62	25.1 ± 8.4	2240 ± 750	5.3 ± 1.2	hardly hygroscopic	0.28	–	–	–
C#Cc1c(-c2cnc3ccccc3c2)c2c(N)ncnc2n1C12CCC(NC(=O)c3cnc(C)cn3)(CC1)C2 [N-(4-(4-amino-6-ethynyl-5-(quinolin-3-yl)-7H-pyrrolo[2,3-d]pyrimidin-7-yl)bicyclo[2.2.1]heptan-1-yl)-5-methylpyrazine-2-carboxamide]	–	–	–	–	–	–	–	–	–	13 ± 4	1260 ± 90	4
C#Cc1c(-c2cnc3ccccc3c2)c2c(N)ncnc2n1C12CCC(NC(=O)c3cnc(C)cn3)(CC1)C2 [Type I crystal of Compound (1) with sorbic acid] [N-(4-(4-amino-6-ethynyl-5-(quinolin-3-yl)-7H-pyrrolo[2,3-d]pyrimidin-7-yl)bicyclo[2.2.1]heptan-1-yl)-5-methylpyrazine-2-carboxamide]	99.72	extremely stable crystals with almost no increase in the related substances	−0.02%	99.74	18.1 ± 13.1	1680 ± 880	6.0 ± 2.0	hardly hygroscopic	0.26	–	–	–
